The values below come from US6444644B1, “Anticoagulant peptide fragments derived from apolipoprotein B-100” (University College London, priority 1996, dated 2002).

No end group written: not given here.

Holding throughout (type): biochemical
The target in one experiment is factor V. As to the kind of experiment: Influence on factor V procoagulant activity (factor V-deficient plasma). Conditions: factor V 1 μM, 37° C., preactivated factor V deficient plasma; read-out: Kdapp, inhibition of coagulation upon pre-incubation with factor V. How it is done: Samples (1 ml) of either KRAD-14 peptide (500 nM) or the control peptide (500 nM) were incubated with pre-activated factor V (100 nM) at 37° C. and the factor V activity measured at the beginning and at intervals up to 60 min as follows. The procoagulant activity of factor V was measured by the addition of 100 μl of the sample to factor V-deficient plasma (100 μl) pre-activated by incubation (2 min) with thromboplastin (200 nM) in the presence of CACl2 (25 mM), and measuring the clotting time. The activity was measured against a standard curve and the percentage inhibition calculated against the initial factor V activity. The curves are typical of data from three separate experiments.
Three 1 ml samples containing recombinant KRAD-14 peptide (20 (♦) 40 (▾) and 80 (▪) nM) were mixed with factor V (1 μM). 100 μl of the each sample was removed immediately and assayed for […] by addition to factor V-deficient plasma, pre-activated by incubation (2 min) with thromboplastin (200 nM) in the presence of CaCl2 (25 mM), and measuring the clotting time. The rest of the samples were incubated at 37° C. and further 100 μl samples were removed at intervals up to 40 min and measured as before. The activity was measured against a standard curve and the percentage inhibition calculated against the initial factor V activity. The curves are typical of data from 3 separate experiments.

Experiment [1] has as its target T1, thromboplastin, reconstituted in phosphatidylcholine (Homo sapiens, UniProt P13726).
T1 construct: purchased Gamidor Ltd. (Oxfordshire, U.K.)
Nature of the experiment: Inhibition of delipidated thromboplastin reconstituted in phosphatidylcholine. The conditions noted are these: 500 nM sample, 37° C., 30 min. How it is done:
In other experiments, recombinant thromboplastin (1 mg/ml) was delipidated with chloroform/methanol as described previously, to remove phosphatidylserine and other lipids and reconstituted with phosphatidylcholine (1 mg/ml) to differentiate between the effects of the prepared samples on the protein moiety of thromboplastin and any effects on the thromboplastin-associated phosphatidylserine. […] The percentage inhibition was calculated against the control sample.
Recombinant thromboplastin was delipidated to remove phosphatidylserine and other lipids and reconstituted at 1 mg/ml with phosphatidylcholine (1 mg/ml). […] The % Inhibition was calculated against the control. The data were obtained from 3 separate experiments.

A further experiment concerns the target T2, thromboplastin (Homo sapiens, UniProt P13726).
T2 construct: purchased Gamidor Ltd. (Oxfordshire, U.K.)
As to the kind of experiment: Time-course inhibition of thromboplastin procoagulant activity (one-stage prothrombin time and two-stage amidolytic assay). The conditions noted are these: 500 nM, thromboplastin 100 nM (10 U/ml), 37° C. Here is the method: The one stage prothrombin time assay was carried out by the addition of 100 μl of the sample to 100 μl of 25 mM CaCl2 solution and incubation prior to addition of 100 μl of control plasma. The clotting time was measured on the coagulometer. The two-stage amidolytic assay was carried according to published procedures. In all cases the thromboplastin activity was calculated from a standard curve prepared previously and the percentage inhibition was calculated as 100×[…].
The apolipoprotein B-100 control peptide (fragment 3358-3372) containing the sequence TRLTRKRGLKLATAL was reconstituted in distilled water to 1 mM. The freeze-dried samples were reconstituted in distilled water to a concentration of 1 mM. Two 200 μl samples of thromboplastin (10 U/ml) were incubated with 500 nM KRAD-14 or apolipoprotein B-100 control peptide at 37° C. for 45 min. Another set of 200 μl samples of thromboplastin (10 U/ml) were incubated with either 500 nM KRAD-98 or the chloramphenicol acetyltransferase control protein. […] Following the incubation the thromboplastin activity in all the samples was measured by means of the one-stage prothrombin time assay and the two-stage amidolytic assay and the percentage inhibition calculated against the control containing distilled water.
The above experiments were repeated using 1 ml samples containing recombinant thromboplastin (10 U/ml) mixed with either 500 nM KRAD-14, 500 nM KRAD-98 or 500 nM apolipoprotein B-100, reconstituted as described before. The concentrations used are equivalent to that of apolipoprotein B-100 in normal plasma. 100 μl of the each sample was removed immediately and assayed for thromboplastin activity, by means of the one-stage prothrombin time assay. The rest of the samples were incubated at 37° C. and further 100 μl samples were removed at intervals up to 120 min and measured as before. The percentage inhibition was calculated against a control sample of thromboplastin.
Three 1 ml samples containing recombinant thromboplastin (10 U/ml) were mixed with 500 nM KRAD-14 (solid square), 500 nM KRAD-98 (open square) or 500 nM apolipoprotein […] (triangle), reconstituted as described before. The concentrations used are equivalent to that of apolipoprotein B-100 in normal plasma. 100 μl of the each sample was removed immediately and assayed for thromboplastin activity, by means of the one-stage prothrombin time assay. The rest of the samples were incubated at 37° C. and further 100 μl samples were removed at intervals up to 120 min and measured as before. The thromboplastin activity was calculated from a standard curve prepared previously and the percentage inhibition was calculated as 100×[…]. The curves are typical of data from four sets of experiments.

For experiment [2], the system named is factor VII/thromboplastin. As to the kind of experiment: Effect on activation and activity of factor VII (clotting in factor VII deficient plasma). Here is the method: In order to assess whether the action of KRAD-14 peptide was directed to the proteolytic activity of factor VIIa/thromboplastin or the activation of factor VII by interaction with thromboplastin, first thromboplastin (200 nM) and factor VII (200 nM) were incubated for 10 min in the presence of 25 mM CaCl2, prior to addition of KRAD-14 peptide and a further 10 min incubation. The samples were then assayed by addition to factor VII deficient plasma and measuring the clotting time. Appropriate controls devoid of KRAD-14 peptide were included in each experiment.
In order to assess whether the action of KRAD-14 peptide was directed to the proteolytic activity of factor VIIa/thromboplastin or the activation of factor VII by interaction with thromboplastin, first thromboplastin (200 nM) and factor VII (200 nM) were incubated for 10 min in the presence of 25 mM CaCl2, prior to addition of […] (500 nM) and a further 10 min incubation. In the second experiment thromboplastin, factor VII and factor Xa (100 nM) were pre-incubated for 10 min in the presence of 25 mM CaCl2, prior to addition of KRAD-14 peptide and a further 10 min incubation. The samples were then assayed by addition to factor VII deficient plasma and measuring the clotting time. […] Conversely, it was able to inhibit the activation of the pro-enzyme (inhibition=74%+8) (Table 2). […]

T1 sequence (P13726 33-295): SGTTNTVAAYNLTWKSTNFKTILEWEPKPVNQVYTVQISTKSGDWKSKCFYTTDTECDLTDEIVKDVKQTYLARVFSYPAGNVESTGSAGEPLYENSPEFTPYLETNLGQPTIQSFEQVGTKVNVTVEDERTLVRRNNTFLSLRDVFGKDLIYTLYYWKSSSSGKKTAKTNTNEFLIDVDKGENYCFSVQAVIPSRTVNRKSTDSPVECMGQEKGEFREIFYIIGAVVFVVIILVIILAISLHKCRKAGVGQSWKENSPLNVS
T2 sequence (P13726 33-295): as above

Turning to KAQSKKNKHRHSTT [KRAD-14], the Kd on factor V was 285 nM. In addition, the inhibition (in general, the percentage by which the read-out fell short of the control) at 0.5 µM in experiment [1] (against distilled water control) is more than 99%; on thromboplastin (2 min incubation), 90%; against thromboplastin (4 min incubation (maximum)), 98%. Further, the % Inhibition (commonly the percentage by which the read-out fell short of the control) in experiment [1] (against distilled water control, listed as Recombinant KRAD-14 peptide) came out at 99%. In addition, the “Procoagulant Activity” value in experiment [1] (distilled water control 4.70 U/ml) is “(0.05 U/ml)”. In addition, in experiment [2] (peptide 500 nM added after pre-incubation, further 10 min, factor VII deficient plasma), the “inhibition of the activity of factor VIIa” value amounted to 12%. Moreover, the “inhibition of the activation of the pro-enzyme (factor VII)” value in experiment [2] (thromboplastin 200 nM, factor VII 200 nM, 25 mM CaCl2, peptide 500 nM, 10 min) came to 74%.
